Target: T1, soluble guanylate cyclase (human GUCYA3/GUCYB3) overexpressed in CHO cells (Homo sapiens, UniProt Q02108+Q02153)
T1 construct: expressed in transfected cells
T1 sequence (Q02108 1-690 partner): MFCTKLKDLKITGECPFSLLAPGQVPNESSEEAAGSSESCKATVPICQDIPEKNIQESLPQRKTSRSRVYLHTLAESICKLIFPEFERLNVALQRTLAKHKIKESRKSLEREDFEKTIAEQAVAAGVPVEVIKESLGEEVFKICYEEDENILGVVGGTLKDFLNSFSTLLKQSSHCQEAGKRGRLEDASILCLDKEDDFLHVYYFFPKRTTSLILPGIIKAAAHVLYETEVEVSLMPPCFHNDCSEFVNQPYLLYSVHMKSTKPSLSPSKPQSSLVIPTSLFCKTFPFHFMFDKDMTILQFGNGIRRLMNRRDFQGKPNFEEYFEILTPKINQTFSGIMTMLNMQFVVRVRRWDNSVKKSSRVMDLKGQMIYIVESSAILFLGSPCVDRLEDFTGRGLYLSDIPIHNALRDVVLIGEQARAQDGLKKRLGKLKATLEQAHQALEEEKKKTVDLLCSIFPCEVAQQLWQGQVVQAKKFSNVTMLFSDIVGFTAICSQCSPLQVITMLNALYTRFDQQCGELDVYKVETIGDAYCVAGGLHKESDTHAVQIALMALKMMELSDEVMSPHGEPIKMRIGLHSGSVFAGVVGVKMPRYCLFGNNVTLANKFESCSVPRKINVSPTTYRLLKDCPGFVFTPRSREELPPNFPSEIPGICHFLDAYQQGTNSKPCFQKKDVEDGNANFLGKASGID
T1 sequence (Q02153 1-619): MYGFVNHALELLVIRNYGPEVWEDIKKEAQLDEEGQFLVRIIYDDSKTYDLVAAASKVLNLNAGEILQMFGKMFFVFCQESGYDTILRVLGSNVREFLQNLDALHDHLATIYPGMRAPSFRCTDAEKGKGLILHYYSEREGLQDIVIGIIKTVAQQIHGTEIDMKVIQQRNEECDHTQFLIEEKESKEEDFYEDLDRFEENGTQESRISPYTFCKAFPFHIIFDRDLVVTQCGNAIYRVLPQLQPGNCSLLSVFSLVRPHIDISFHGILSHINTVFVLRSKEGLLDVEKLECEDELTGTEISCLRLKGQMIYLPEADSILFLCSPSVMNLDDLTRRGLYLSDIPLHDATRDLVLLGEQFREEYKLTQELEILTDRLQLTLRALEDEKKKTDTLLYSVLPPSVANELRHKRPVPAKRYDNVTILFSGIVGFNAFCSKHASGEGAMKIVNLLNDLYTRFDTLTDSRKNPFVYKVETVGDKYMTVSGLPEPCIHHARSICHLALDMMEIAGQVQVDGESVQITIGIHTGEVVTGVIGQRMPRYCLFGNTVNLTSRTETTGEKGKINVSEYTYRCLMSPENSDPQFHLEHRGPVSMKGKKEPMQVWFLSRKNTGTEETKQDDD
Assay: CHO cellular assay (cGMP production, HTRF)
Format: cell-based
Conditions: CHO K1 clone 8E10 overexpressing human sGC, Cisbio HTRF, 1 h room temperature, 1 mM IBMX, 20 uM ODQ, minimum quantification limit 0.5 nM
From the text: Chinese hamster ovary (CHO) cells overexpressing soluble guanylate cyclase were generated to test the effect of sGC activators in a cellular context. Human cDNAs for GUCYA3 (RefSeq: NM_000856.3) and GUCYB3 (RefSeq: NM_000857.1) were amplified by PCR from a HUVEC (Human Umbilical Vein Endothelial Cells) cDNA library and cloned into mammalian expression vectors. CHO K1 cells (ATCC CCL-61) were transfected using Lipofectamine 2000 following manufacturer's instructions and stably expressing clones were identified by antibiotic selection. CHO GUCY clone 8E10 was used for subsequent experiments.
Cells were seeded at a density of 3000 cells/well in white 384-well proxyplates (Perkin Elmer) and incubated overnight, then the medium was removed and cells were washed with assay buffer (HBSS, 0.1% BSA, 1 mM IBMX, 20 uM ODQ). sGC activators were serially diluted in DMSO, then diluted in assay buffer prior to adding to cells (10 ul/well, final DMSO concentration 0.5%). Cells were incubated with compounds for 1 h room temperature, then assayed for cGMP production using Cisbio cGMP HTRF kit (62GM2PEC) according to manufacturer's instructions.
The EC50s are calculated based on the amount of cGMP interpolated from the standard curve, using a 4-parameter sigmoidal dose-response.

| SMILES | EC50 [nM] |
| --- | --- |
| Cc1cc(C2CCN(C(=O)C3CC3)CC2)ccc1OCc1ccsc1-c1cccc(-n2ncc(C(=O)O)c2C(F)(F)F)c1 [Example 6-1, 1-(3-(3-((4-(1-(Cyclopropanecarbonyl)piperidin-4-yl)-2-methylphenoxy)methyl)thiophen-2-yl)phenyl)-5-(trifluoromethyl)-1H-pyrazole-4-carboxylic acid] | 1 |
| Cc1c(OCc2ccsc2-c2cccc(-n3ncc(C(=O)O)c3C(F)(F)F)n2)ccc(C2CCN(C(=O)C3CC3)CC2)c1C [Example 6-2, 1-(6-(3-((4-(1-(Cyclopropanecarbonyl)piperidin-4-yl)-2,3-dimethylphenoxy)methyl)thiophen-2-yl)pyridin-2-yl)-5-(trifluoromethyl)-1H-pyrazole-4-carboxylic acid] | 33 |
| Cc1cc(C2CCN(C(=O)C3CC3)CC2)ccc1OCc1cc(Cl)sc1-c1cccc(-n2ncc(C(=O)O)c2C(F)(F)F)n1 [Example 6-3, 1-(6-(5-Chloro-3-((4-(1-(cyclopropanecarbonyl)piperidin-4-yl)-2-methylphenoxy)methyl)thiophen-2-yl)pyridin-2-yl)-5-(trifluoromethyl)-1H-pyrazole-4-carboxylic acid] | ≤ 0.5 |
| COc1cc(C2CCN(C(=O)C3CC3)CC2)ccc1OCc1ccsc1-c1cccc(-n2ncc(C(=O)O)c2C(F)(F)F)n1 [Example 6-4, 1-(6-(3-((4-(1-(Cyclopropanecarbonyl)piperidin-4-yl)-2-methoxyphenoxy)methyl)thiophen-2-yl)pyridin-2-yl)-5-(trifluoromethyl)-1H-pyrazole-4-carboxylic acid] | 2 |
| COc1cc(OCc2ccsc2-c2cccc(-n3ncc(C(=O)O)c3C(F)(F)F)n2)ccc1C1CCN(C(=O)C2CC2)CC1 [Example 6-5, 1-(6-(3-((4-(1-(Cyclopropanecarbonyl)piperidin-4-yl)-3-methoxyphenoxy)methyl)thiophen-2-yl)pyridin-2-yl)-5-(trifluoromethyl)-1H-pyrazole-4-carboxylic acid] | 1 |
| CCc1cc(OCc2ccsc2-c2cccc(-n3ncc(C(=O)O)c3C(F)(F)F)n2)ccc1C1CCN(C(=O)C2CC2)CC1 [Example 6-6, 1-(6-(3-((4-(1-(Cyclopropanecarbonyl)piperidin-4-yl)-3-ethylphenoxy)methyl)thiophen-2-yl)pyridin-2-yl)-5-(trifluoromethyl)-1H-pyrazole-4-carboxylic acid] | ≤ 0.5 |
| Cc1cc(C2CCN(C(=O)C3CC3)CC2)ccc1OCc1cc(C2CC2)sc1-c1cccc(-n2ncc(C(=O)O)c2C(F)(F)F)n1 [Example 6-7, 1-(6-(3-((4-(1-(Cyclopropanecarbonyl)piperidin-4-yl)-2-methylphenoxy)methyl)-5-cyclopropylthiophen-2-yl)pyridin-2-yl)-5-(trifluoromethyl)-1H-pyrazole-4-carboxylic acid] | 1.4 |
| Cc1cc(C2CCN(C(=O)C3CC3)CC2)ccc1OCc1c(-c2cccc(-n3ncc(C(=O)O)c3C(F)(F)F)n2)sc(C)c1C [Example 6-8, 1-(6-(3-((4-(1-(Cyclopropanecarbonyl)piperidin-4-yl)-2-methylphenoxy)methyl)-4,5-dimethylthiophen-2-yl)pyridin-2-yl)-5-(trifluoromethyl)-1H-pyrazole-4-carboxylic acid] | ≤ 0.5 |
| CCc1c(C(=O)O)cnn1-c1cccc(-c2sccc2COc2ccc(C3CCN(C(=O)C4CC4)CC3)cc2C)n1 [Example 6-9, 1-(6-(3-((4-(1-(Cyclopropanecarbonyl)piperidin-4-yl)-2-methylphenoxy)methyl)thiophen-2-yl)pyridin-2-yl)-5-ethyl-1H-pyrazole-4-carboxylic acid] | ≤ 0.5 |
| Cc1cc(COc2ccc(C3CC(C)(C)N(C(=O)C4CC4)C(C)(C)C3)cc2C)c(-c2cccc(-n3ncc(C(=O)O)c3C(F)(F)F)n2)s1 [Example 6-10, 1-(6-(3-((4-(1-(Cyclopropanecarbonyl)-2,2,6,6-tetramethylpiperidin-4-yl)-2-methylphenoxy)methyl)-5-methylthiophen-2-yl)pyridin-2-yl)-5-(trifluoromethyl)-1H-pyrazole-4-carboxylic acid] | 1 |
| CCc1cc(OCc2cc(C)sc2-c2cccc(-n3ncc(C(=O)O)c3C(F)(F)F)n2)ccc1C1CCN(C(=O)C2CC2)CC1 [Example 6-11, 1-(6-(3-((4-(1-(Cyclopropanecarbonyl)piperidin-4-yl)-3-ethylphenoxy)methyl)-5-methylthiophen-2-yl)pyridin-2-yl)-5-(trifluoromethyl)-1H-pyrazole-4-carboxylic acid] | ≤ 0.5 |
| Cc1cc(COc2ccc(C3CCN(C(=O)C4CC4)CC3)c(C(C)C)c2)c(-c2cccc(-n3ncc(C(=O)O)c3C(F)(F)F)n2)s1 [Example 6-12, 1-(6-(3-((4-(1-(Cyclopropanecarbonyl)piperidin-4-yl)-3-isopropylphenoxy)methyl)-5-methylthiophen-2-yl)pyridin-2-yl)-5-(trifluoromethyl)-1H-pyrazole-4-carboxylic acid] | 1 |
| Cc1cc(COc2ccc(C3CCN(C(=O)C4CC4)CC3)cc2F)c(-c2cccc(-n3ncc(C(=O)O)c3C(F)(F)F)n2)s1 [Example 6-13, 1-(6-(3-((4-(1-(Cyclopropanecarbonyl)piperidin-4-yl)-2-fluorophenoxy)methyl)-5-methylthiophen-2-yl)pyridin-2-yl)-5-(trifluoromethyl)-1H-pyrazole-4-carboxylic acid] | 1 |
| Cc1cc(COc2ccc(C3CCN(C(=O)C4CC4)CC3)c(F)c2)c(-c2cccc(-n3ncc(C(=O)O)c3C(F)(F)F)n2)s1 [Example 6-14, 1-(6-(3-((4-(1-(Cyclopropanecarbonyl)piperidin-4-yl)-3-fluorophenoxy)methyl)-5-methylthiophen-2-yl)pyridin-2-yl)-5-(trifluoromethyl)-1H-pyrazole-4-carboxylic acid] | 3 |
| CCc1cc(C2CCN(C(=O)C3CC3)CC2)ccc1OCc1cc(C)sc1-c1cccc(-n2ncc(C(=O)O)c2C(F)(F)F)n1 [Example 6-15, 1-(6-(3-((4-(1-(Cyclopropanecarbonyl)piperidin-4-yl)-2-ethylphenoxy)methyl)-5-methylthiophen-2-yl)pyridin-2-yl)-5-(trifluoromethyl)-1H-pyrazole-4-carboxylic acid] | 9.5 |
| Cc1cc(COc2ccc(C3CCN(CC(F)(F)F)CC3)cc2C)c(-c2cccc(-n3ncc(C(=O)O)c3C(F)(F)F)n2)s1 [Example 6-16, 1-(6-(5-Methyl-3-((2-methyl-4-(1-(2,2,2-trifluoroethyl)piperidin-4-yl)phenoxy)methyl)thiophen-2-yl)pyridin-2-yl)-5-(trifluoromethyl)-1H-pyrazole-4-carboxylic acid] | 6.3 |
| CCc1cc(COc2ccc(C3CCN(CC(F)(F)F)CC3)cc2C)c(-c2cccc(-n3ncc(C(=O)O)c3C(F)(F)F)n2)s1 [Example 6-17, 1-(6-(5-Ethyl-3-((2-methyl-4-(1-(2,2,2-trifluoroethyl)piperidin-4-yl)phenoxy)methyl)thiophen-2-yl)pyridin-2-yl)-5-(trifluoromethyl)-1H-pyrazole-4-carboxylic acid] | 14 |

— patent US9765067B2, “Thiophen-2-yl-pyridin-2-yl-1H-pyrazole-4-carboxylic acid derivatives and the use thereof as soluble guanylate cyclase activators” (Novartis AG, priority 2014, dated 2017)
